In paper PMC5734728, “The JAK2/STAT3 inhibitor pacritinib effectively inhibits patient-derived GBM brain tumor initiating cells in vitro and when used in combination with temozolomide increases survival in an orthotopic xenograft model” (PLoS ONE, 2017):

Experiments:
[1] = system: BT48; test: alamarBlue BTIC viability assay, BT48; format: cell-based; conditions: Homo sapiens; BTIC line BT48, alamarBlue
[2] = system: p-STAT3 Y705; test: western blotting of activated STAT3 in BTICs; format: cell-based, human; conditions: for STAT3 activation (phosphorylation on tyrosine 705): 3 hours
Procedure: BTIC spheres were enzymatically dissociated as described above and plated at 10^6 cells/2 mL of media. Cells were treated with vehicle (DMSO), pacritinib, TMZ, or a combination of pacritinib and TMZ and pelleted at select time points (3, 24, and 48 hours). For protein extraction, BTICs were lysed in modified radio-immunoprecipitation assay buffer supplemented with Complete Mini protease (Roche) and Halt phosphatase (Thermo Scientific) inhibitor cocktails. Protein concentrations were quantified using the BioRad protein assay; 20 μg of protein were loaded on 6% or 10% sodium dodecyl sulfate polyacrylamide gel electrophoresis (SDS PAGE) gels and transblotted to nitrocellulose membranes. Blots were stained with primary antibodies followed by horseradish peroxidase-conjugated secondary antibodies. Primary antibodies included p-STAT3 Y705 (1:1000; Cell Signaling Technology), STAT3 (1:1000; Cell Signaling Technology), p-Akt S473 (1:1000; Cell Signaling Technology), Akt (1:1000; Cell Signaling Technology), p-p44/42 MAPK (T202/Y204) (1:1000; Cell Signaling Technology), p44/42 MAPK (1:4000; Cell Signaling Technology), poly (ADP-ribose) polymerase (1:1000; Cell Signaling Technology), β-tubulin (1:1000; Cell Signaling Technology), and Actin (1:1000; Santa Cruz Biotechnology). Secondary antibodies included donkey anti-mouse (1:5000; Cell Signaling Technology), donkey anti-goat (1:5000; Millipore), and goat anti-rabbit (1:5000; Cell Signaling Technology). The blots were washed with tris-buffered saline and tween 20 (T-TBS) (50mM Tris, 150mM NaCl, 0.05% Tween 20, pH 7.6) and blocked with tris-buffered saline (TBS) before imaging. Bands were visualized with the SuperSignal West Pico chemiluminescent solution (Thermo Scientific) and an Amersham™ Imager 600 (General Electric).

[3] = human liver microsomal stability assay; format: in vitro ADME; conditions: human liver microsomes, 30-minute incubation
Procedure: Working stocks were initially diluted to a concentration of 40 μM in 0.1 M potassium phosphate buffer before addition to the reaction vials. Pooled mouse (CD-1, male) or human (50 donors) liver microsomes were utilized at a final concentration of 0.5 mg/mL. Duplicate wells were used for each time point (0 and 30 minutes). Reactions were carried out at 37°C in a shaker, and the final concentration of DMSO was kept constant at 0.01%. The final volume for each reaction was 100 μL, which included the addition of an NADPH-Regeneration solution (NRS) mix. The NRS mix was comprised of glucose 6-phosphate dehydrogenase (0.4 U/mL), NADP+ (1.3 mM), MgCl2 (3.3 mM), and glucose 6-phosphate (3.3 mM) in assay mixtures. Upon completion of the 30-minute time point, reactions were terminated by the addition of 1.5-volumes (150 μL) of ice-cold acetonitrile with 0.5% formic acid and internal standard. Samples were then centrifuged at 4,000 rpm for 10 minutes to remove debris and precipitated protein. Approximately 150 μL of supernatant was subsequently transferred to a new 96-well microplate for LC-MS analysis. Narrow-window mass extraction LC-MS analysis was performed for all samples using a Waters Xevo quadrupole time-of-flight (QToF) mass spectrometer and an ACQUITY UPLC system, to determine relative peak areas of parent compound.

[4] = system: BT147 orthotopic xenograft; test: Kaplan-Meier survival, orthotopic BT147 xenograft; format: in vivo; conditions: BT147 xenografted mice
Procedure: For Kaplan-Meier survival studies, BTIC spheres from BT53 or BT147 were dissociated to a single-cell suspension. Mice were anaesthetized using 10 mg/kg ketamine/xylazine. Buprenorphine (0.05 mg/kg) was administered once pre-operatively and once post-operatively to minimize animal suffering. 5 x 10^4 cells were stereotactically implanted into the right striata of 8- to 10-week-old female severe combined immunodeficient (SCID) mice, as previously described and approved by the University of Calgary Health Sciences Animal Care Committee, accredited by CCAC. Mice were randomized to vehicle or treatment cohorts, with a minimum of 8 mice per group, one week after cell implantation. For BT147, vehicle (Ora-Plus; Galenova), pacritinib (100 mg/kg), TMZ (30 mg/kg), or a combination of pacritinib (100 mg/kg) and TMZ (30 mg/kg), were administered via oral gavage. Animals completed a five-week regimen of three weekly treatments for a total of 15 treatments. For BT53, 100 mg/kg of pacritinib was administered twice per day alone or in combination with 50 mg/kg TMZ once per day, for one week via oral gavage. Following this, mice received 100 mg/kg pacritinib twice per day in combination with 10 mg/kg TMZ once per day for two weeks. Mice were euthanized with a lethal dose of sodium pentobarbital at a pre-defined humane endpoint. Specific criteria for the endpoint included: 20% weight loss, lack of grooming, inactivity, hind limb paralysis, and/or inability to eat or drink. The body weights were closely monitored throughout the course of the experiment. […] The presence of tumor was confirmed in the mice via necropsy and cranial dissection.

[5] = system: BT206 orthotopic xenograft; test: Kaplan-Meier survival, orthotopic BT206 xenograft; format: in vivo; conditions: BT206 xenografted mice; p < 0.0968 log-rank
[6] = system: BT53; test: alamarBlue BTIC viability assay, BT53; conditions: Homo sapiens, read-out: IC50 (viability)
Procedure: Accumax (eBioscience) was used to enzymatically dissociate BTIC spheres to single cells. Cells were seeded at 1000 cells per well in 96-well plates and treated with vehicle (DMSO) or drug, 24 hours after plating. BTIC viability was assessed after 7–14 days, once spheres were formed in control wells, by performing the alamarBlue™ (Invitrogen) assay per the manufacturer’s instructions. In brief, the alamar dye was added to each well and plates were read 6 hours later. Fluorescence intensity (excitation 540 nm; emission 590 nm) was measured on a SpectraMax M Series Multi-Mode Microplate reader. […] All experiments were performed in triplicate with a minimum of 3 wells per condition.
BTICs were treated with suboptimal doses of 1 μM pacritinib (CTI Biopharma), 10 μg/mL TMZ (Sigma), or a combination of pacritinib and TMZ. […] Percent inhibition was determined by normalizing each well to the control well (0.1% DMSO).

C1=C/COCc2cc(ccc2OCCN2CCCC2)Nc2nccc(n2)-c2cccc(c2)COC/1 [pacritinib]
IC50 [1]: 1030 nM | p-STAT3 Y705 ([2]; BT53, 48 hours, 1 μM pacritinib, 10 μg/mL TMZ or both): dramatically reduced phosphorylation | STAT3 activation (phosphorylation on tyrosine 705) ([2]; BT53, low micromolar concentrations): decreased STAT3 activation | activated STAT3 (phosphorylation on tyrosine 705) ([2]; BT69, 3 hours): decreased activated STAT3 | STAT3 activation (phosphorylation on tyrosine 705) ([2]; BT147, 1 μM): strongly decreased STAT3 activation | stability rating [3]: Stable | remaining at 0.5 h, 1 μM ([3]; 1 μM): 76.2 ± 7.9% | survival advantage, single agent ([4]; 100 mg/kg pacritinib, p < 0.4649 log-rank): no survival advantage | median survival ([4]; pacritinib 100 mg/kg, TMZ 30 mg/kg, oral, thrice weekly for five weeks, control 52 days): 48 days | efficacy of treatment alone (Kaplan-Meier survival) [5]: no efficacy | IC50 [6]: 920 nM
